This test deals with hT2R8 (Homo sapiens (Human), UniProt Q9NYW2). Put plainly: hT2R8 antagonist high-throughput FLIPR assay, stable cell line with G16g44, agonist andrographolide. It is filed as cell-based. In a few lines: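 HEK293 cells stably co-expressing hT2R8 and chimeric G16g44, read on FLIPR. Test compounds added together with andrographolide (200 μM), which drives the receptor to 70–80% of maximal activity; antagonism seen as reduced agonist response.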

[1] abbreviates: table after Example 10-97, read-out: hT2R8 IC50.
Setting [2] is: unit uM, read-out: IC50 on hT2R08 bitter receptor.
[3] abbreviates: read-out: IC50 on hT2R8 bitter receptor.

Like-named read-outs stand apart in the source and are kept apart here.

In general, IC50 refers to the concentration at which inhibition is half-maximal.

Chain of hT2R8 (Q9NYW2 whole entry): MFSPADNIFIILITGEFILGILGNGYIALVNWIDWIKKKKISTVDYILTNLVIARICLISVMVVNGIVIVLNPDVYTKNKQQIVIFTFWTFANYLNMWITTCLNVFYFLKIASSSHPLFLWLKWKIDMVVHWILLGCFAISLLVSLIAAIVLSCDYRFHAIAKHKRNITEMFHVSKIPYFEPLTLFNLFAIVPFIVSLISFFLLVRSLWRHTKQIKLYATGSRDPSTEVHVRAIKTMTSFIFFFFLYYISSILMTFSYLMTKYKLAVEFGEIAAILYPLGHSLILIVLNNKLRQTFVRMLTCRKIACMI

Regarding `Cc1cccc(CN2CC(=O)N(c3cnn(Cc4c(C)noc4C)c3)C2=O)c1` [Example 10-26, 3-(1-((3,5-dimethylisoxazol-4-yl)methyl)-1H-pyrazol-4-yl)-1-(3-methylbenzyl)imidazolidine-2,4-dione], the 50% inhibitory concentration (IC50) runs as follows: under setting [1], 0.019 µM; under setting [2], 0.02 µM. The corresponding values for `Cc1noc(C)c1Cn1cc(N2C(=O)CN(Cc3cccc(F)c3)C2=O)cn1` [Example 10-27, 3-(1-((3,5-dimethylisoxazol-4-yl)methyl)-1H-pyrazol-4-yl)-1-(3-fluorobenzyl)imidazolidine-2,4-dione] are 0.058 µM and 0.06 µM.

On to `Cc1noc(C)c1Cn1cc(N2C(=O)CN(Cc3cc(C)n(C)n3)C2=O)cn1` [Example 10-28, 1-((1,5-dimethyl-1H-pyrazol-3-yl)methyl)-3-(1-((3,5-dimethylisoxazol-4-yl)methyl)-1H-pyrazol-4-yl) imidazolidine-2,4-dione], for which the IC50 came to 0.322 µM under setting [1] and 0.3 µM under setting [2]. With `COc1ccc(CN2CC(=O)N(c3cnn(Cc4c(C)noc4C)c3)C2=O)cc1` [Example 10-29, 3-(1-((3,5-dimethylisoxazol-4-yl)methyl)-1H-pyrazol-4-yl)-1-(4-methoxybenzyl)imidazolidine-2,4-dione], the IC50 reads like this: under setting [1], 3.12 µM; under setting [2], 0.07 µM. `Cc1ccc(CN2CC(=O)N(c3cnn(Cc4c(C)noc4C)c3)C2=O)cc1` [Example 10-30, 3-(1-((3,5-dimethylisoxazol-4-yl)methyl)-1H-pyrazol-4-yl)-1-(4-methylbenzyl)imidazolidine-2,4-dione]: the IC50 amounted to 0.065 µM under setting [1] and 0.06 µM under setting [2].

For `Cc1noc(C)c1Cn1cc(N2C(=O)CN(Cc3ccc(F)cc3)C2=O)cn1` [Example 10-31, 3-(1-((3,5-dimethylisoxazol-4-yl)methyl)-1H-pyrazol-4-yl)-1-(4-fluorobenzyl)imidazolidine-2,4-dione], the IC50 reads like this: under setting [1], 0.045 µM; under setting [2], 0.05 µM. Regarding `Cc1noc(C)c1Cn1cc(N2C(=O)CN(Cc3ccc(C#N)cc3)C2=O)cn1` [Example 10-32, 4-((3-(1-((3,5-dimethylisoxazol-4-yl)methyl)-1H-pyrazol-4-yl)-2,4-dioxoimidazolidin-1-yl)methyl)benzonitrile], the concentration for half-maximal inhibition (IC50) stood at 0.048 µM under setting [1] and 0.05 µM under setting [2].

Regarding `Cc1noc(C)c1Cn1cc(N2C(=O)CN(Cc3cccc(CO)c3)C2=O)cn1` [Example 10-33, 3-(1-((3,5-dimethylisoxazol-4-yl)methyl)-1H-pyrazol-4-yl)-1-(3-(hydroxymethyl)benzyl)imidazolidine-2,4-dione], the IC50 under setting [1] stood at 0.322 µM and the IC50 under setting [2] came to 0.3 µM. For the molecule `Cc1noc(C)c1Cn1cc(N2C(=O)CN(Cc3ccccc3N)C2=O)cn1` [Example 10-34, 1-(2-aminobenzyl)-3-(1-((3,5-dimethylisoxazol-4-yl)methyl)-1H-pyrazol-4-yl)imidazolidine-2,4-dione], the 50% inhibitory concentration (IC50) came out at 0.163 µM under setting [1] and 0.02 µM under setting [2]. As for `COc1ccc(CN2CC(=O)N(c3cnn(Cc4c(C)noc4C)c3)C2=O)cc1OC` [Example 10-35, 1-(3,4-dimethoxybenzyl)-3-(1-((3,5-dimethylisoxazol-4-yl)methyl)-1H-pyrazol-4-yl)imidazolidine-2,4-dione], the half-maximal inhibitory concentration (IC50) came out at 0.051 µM under setting [1] and 0.06 µM under setting [2]. Take `Cc1noc(C)c1Cn1cc(N2C(=O)CN(Cc3ccc4c(c3)OCO4)C2=O)cn1` [Example 10-36, 1-(benzo[d][1,3]dioxol-5-ylmethyl)-3-(1-((3,5-dimethylisoxazol-4-yl)methyl)-1H-pyrazol-4-yl)imidazolidine-2,4-dione]: the IC50 under setting [1] is 0.053 µM and the IC50 under setting [2] is 0.07 µM.

`Cc1noc(C)c1Cn1cc(N2C(=O)CN(Cc3cccc(CN(C)C)c3)C2=O)cn1` [Example 10-37, 1-(3-((dimethylamino)methyl)benzyl)-3-(1-((3,5-dimethylisoxazol-4-yl)methyl)-1H-pyrazol-4-yl)imidazolidine-2,4-dione]: the 50% inhibitory concentration (IC50) runs as follows: under setting [1], 1.22 µM; under setting [2], 1.2 µM.

Consider `Cc1noc(C)c1Cn1cc(N2C(=O)CN(Cc3ccn(C)n3)C2=O)cn1` [Example 10-38, 3-(1-((3,5-dimethylisoxazol-4-yl)methyl)-1H-pyrazol-4-yl)-1-((1-methyl-1H-pyrazol-3-yl)methyl)imidazolidine-2,4-dione], for which the IC50 is, setting by setting: under setting [1], 0.363 µM; under setting [2], 0.4 µM. As for `COc1cccc(C(=O)Nc2nnn(Cc3c(C)noc3C)n2)c1` [Example 10-39, N-(2-((3,5-dimethylisoxazol-4-yl)methyl)-2H-tetrazol-5-yl)-3-methoxybenzamide], under setting [3], the half-maximal inhibitory concentration (IC50) stood at 1.87 µM. As to `Cc1noc(C)c1Cn1cnc(NC(=O)c2ccc3c(c2)OCO3)c1` [Example 10-40, N-(1-((3,5-dimethylisoxazol-4-yl)methyl)-1H-imidazol-4-yl)benzo[d][1,3]dioxole-5-carboxamide], the concentration for half-maximal inhibition (IC50) under setting [3] worked out at 12.1 µM. Turning to `Cc1noc(C)c1Cn1cc(N2C(=O)NC(C)C2=O)cn1` (stereo not drawn) [Example 10-41, 3-(1-((3,5-dimethylisoxazol-4-yl)methyl)-1H-pyrazol-4-yl)-5-methylimidazolidine-2,4-dione], the IC50 under setting [3] turned out to be 1.3 µM and the IC50 under setting [1] worked out at 1.28 µM. Consider `Cc1noc(C)c1Cn1cc(N2C(=O)C(Cc3ccccc3)N(C)C2=O)cn1` (stereo not drawn) [Example 10-42, 5-benzyl-3-(1-((3,5-dimethylisoxazol-4-yl)methyl)-1H-pyrazol-4-yl)-1-methylimidazolidine-2,4-dione], for which the IC50 is, setting by setting: under setting [3], 0.15 µM; under setting [1], 0.017 µM.

With `Cc1noc(C)c1Cn1cc(N2C(=O)C(C)N(Cc3ccccc3)C2=O)cn1` (stereo not drawn) [Example 10-43, 1-benzyl-3-(1-((3,5-dimethylisoxazol-4-yl)methyl)-1′-1-pyrazol-4-yl)-5-methylimidazolidine-2,4-dione], the IC50 by setting is: under setting [3], 0.02 µM; under setting [1], 0.02 µM. Regarding `Cc1noc(C)c1Cn1cc(N2C(=O)NC(CCc3ccccc3)C2=O)cn1` (stereo not drawn) [Example 10-45, 3-(1-((3,5-dimethylisoxazol-4-yl)methyl)-1H-pyrazol-4-yl)-5-phenethylimidazolidine-2,4-dione], the IC50 reads like this: under setting [3], 0.22 µM; under setting [1], 0.793 µM. The corresponding values for `Cc1noc(C)c1Cn1cc(N2C(=O)NC(CCCc3ccccc3)C2=O)cn1` (stereo not drawn) [Example 10-46, 3-(1-((3,5-dimethylisoxazol-4-yl)methyl)-1H-pyrazol-4-yl)-5-(3-phenylpropyl)imidazolidine-2,4-dione] are 0.17 µM and 0.484 µM. Turning to `Cc1noc(C)c1Cn1cc(N2C(=O)NC(COCc3ccccc3)C2=O)cn1` (stereo not drawn) [Example 10-47, 5-(benzyloxymethyl)-3-(1-((3,5-dimethylisoxazol-4-yl)methyl)-1H-pyrazol-4-yl)imidazolidine-2,4-dione], the concentration for half-maximal inhibition (IC50) under setting [3] was determined as 0.76 µM and the IC50 under setting [1] worked out at 0.766 µM.

On to `Cc1noc(C)c1Cn1cc(N2C(=O)NC(CC(=O)Nc3ccccc3)C2=O)cn1` (stereo not drawn) [Example 10-48, 2-(1-(1-((3,5-dimethylisoxazol-4-yl)methyl)-1H-pyrazol-4-yl)-2,5-dioxoimidazolidin-4-yl)-N-phenylacetamide], for which the IC50 runs as follows: under setting [3], 0.75 µM; under setting [1], 0.747 µM.

Values taken from patent US9247759B2, “Identification of human T2R receptors that respond to bitter compounds that elicit the bitter taste in compositions, and the use thereof in assays to identify compounds that inhibit (block) bitter taste in compositions and use thereof” (SENOMYX, INC., priority 2007, dated 2016).
